Reference: paper PMC12386934, “Characteristics and Potential of KSL, KSL-W, and Dadapin-1 Antimicrobial Peptides for Preventing Infections of Orthopedic Prosthetic Devices: Identifying the Most Robust Candidate” (International Journal of Molecular Sciences, 2025)

Test system: osteoblast-like MG63 cells
Test: LDH cytotoxicity assay on osteoblast-like cells
Type: cell-based, human
Conditions: 1% Tween-20, Positive Control, 24 h, mean, SD ± 4.2%
Procedure: MG63 cells (ATCC, Rockville, MD, USA) were thawed from a frozen stock and cultured in DMEM (11885-084, Thermo Fisher Scientific, Segrate, Italy) supplemented with non-inactivated 10% fetal bovine serum (FBS, F7524, Sigma-Aldrich, Milan, Italy) and 100× Penicillin/Streptomycin solution (P/S, 10,000 units penicillin and 10 mg streptomycin/mL, P4333, Sigma-Aldrich, Milan, Italy), under standard culture conditions (i.e., at 37 °C, in a humidified atmosphere with 5% CO2). Cells were regularly subcultured 2–3 times a week by using TrypLE Select 1× (GIBCO, Thermo Fisher Scientific, Segrate, Italy).
A suspension of MG63 cells was prepared in complete DMEM at a concentration of 5 × 10^4 cells/mL. […]
Cytotoxicity was assessed by measuring the release of lactate dehydrogenase (LDH) from damaged cells by the LDH Cytotoxicity Assay (ab197004, Abcam, Cambridge, UK), strictly following the instructions of the manufacturer. […] After 10 min shaking, the plate was read in fluorescence (excitation: 535 nm; emission 587 nm) by an Infinite 200 PRO mod. M PLEX multifunction plate reader (Tecan Group Ltd., Männedorf, Switzerland). […]
Data in relative fluorescence units (RFU) from the investigation on KSL-W suppression of S. aureus cytotoxicity were processed as follows. […]

## Tween-20
  cytotoxicity (LDH, % of Lysate Control): 50.3%
